The record followed here is ChEMBL document CHEMBL1127209, “Aromatic isosteres as conformational probes for an isoprenyl subunit: application to inhibitors of squalene synthase” (Bioorg Med Chem Lett, 1993).

To fix the notation:
B1: Squalene synthase (Rattus norvegicus), Q02769 (protein)
chain: MEFVKCLGHPEEFYNLLRFRMGGRRNFIPKMDRNSLSNSLKTCYKYLDQTSRSFAAVIQALDGDIRHAVCVFYLILRAMDTVEDDMAISVEKKIPLLRNFHTFLYEPEWRFTESKEKHRVVLEDFPTISLEFRNLAEKYQTVIADICHRMGCGMAEFLNKDVTSKQDWDKYCHYVAGLVGIGLSRLFSASEFEDPIVGEDTECANSMGLFLQKTNIIRDYLEDQQEGRQFWPQEVWGKYVKKLEDFVKPENVDVAVKCLNELITNALQHIPDVITYLSRLRNQSVFNFCAIPQVMAIATLAACYNNHQVFKGVVKIRKGQAVTLMMDATNMPAVKAIIYQYIEEIYHRVPNSDPSASKAKQLISNIRTQSLPNCQLISRSHYSPIYLSFIMLLAALSWQYLSTLSQVTEDYVQREH

In the first data set the target is T1, Squalene synthase (Rattus norvegicus, UniProt Q02769).
T1 sequence (Q02769 whole entry): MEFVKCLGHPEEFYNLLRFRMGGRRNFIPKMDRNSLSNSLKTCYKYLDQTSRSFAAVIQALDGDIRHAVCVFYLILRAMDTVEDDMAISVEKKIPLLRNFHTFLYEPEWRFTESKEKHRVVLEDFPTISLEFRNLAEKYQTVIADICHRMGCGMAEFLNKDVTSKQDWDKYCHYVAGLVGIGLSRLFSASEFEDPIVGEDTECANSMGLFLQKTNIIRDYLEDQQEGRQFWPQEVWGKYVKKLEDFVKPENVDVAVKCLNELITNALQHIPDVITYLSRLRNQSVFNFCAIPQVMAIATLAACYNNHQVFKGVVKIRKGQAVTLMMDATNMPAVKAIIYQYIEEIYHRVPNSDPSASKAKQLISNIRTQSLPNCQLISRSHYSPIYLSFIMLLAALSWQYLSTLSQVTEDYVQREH
Kind of data set: Tested for inhibitory potency against rat liver microsomal squalene synthase.
Conditions: not given
Consider `CC(C)=CCC/C(C)=C\CC/C(C)=C/COCP(=O)(O)CP(=O)(O)O`, for which the Ki (commonly the equilibrium dissociation constant of an inhibitor or competing ligand from its target) was 37 nM.

Staying with this data set, now noted: read-out: I50.
As for `CC(C)=CCC/C(C)=C\CC/C(C)=C/COCP(=O)(O)CP(=O)(O)O`, the IC50 is 50 nM.

Take `CC(C)=CCC/C(C)=C/c1ccc(COCP(=O)(O)CP(=O)(O)O)s1`: the IC50 worked out at 964 nM.

Consider `CC(C)=CCC/C(C)=C/c1ccc(COCP(=O)(O)CP(=O)(O)O)cc1`, for which the IC50 came out at 125 nM.

In the case of `CC(C)=CCC/C(C)=C/c1ccc(COCP(=O)(O)CP(=O)(O)O)c(C)c1`, the IC50 was found to be 13700 nM.

For `CC(C)=CCC/C(C)=C/c1cccc(COCP(=O)(O)CP(=O)(O)O)c1`, the IC50 is 5100 nM.

As to `CC(C)=CCC/C(C)=C/c1cc(C)c(COCP(=O)(O)CP(=O)(O)O)s1`, the IC50 came out at 5300 nM.

In the case of `CC(C)=CCC/C(C)=C/c1cc(C)c(COCP(=O)(O)CP(=O)(O)O)o1`, the IC50 stood at 41300 nM.

`CC(C)=CCC/C(C)=C\CC/C=C/COCP(=O)(O)CP(=O)(O)O`: the IC50 is 165 nM.

Substrate in another data set: CC(C)=CCC/C(C)=C\CC/C(C)=C/COCP(=O)(O)CP(=O)(O)O
As to the kind of experiment: Tested for Michaelis-Menten constant for squalene synthase.
Conditions: not given
Regarding B1, the Michaelis-Menten constant (Km) (usually the concentration of substrate that gives half-maximal velocity) was 12.7 µM.
